Results: the CheMixHub viscosity set

Test: xn = mol fraction of the nth substance listed

ClCCCCCCCl + C1CCCCC1
viscosity [mPa·s], 101 kPa
Conditions | x1 = 0.07055 | x1 = 0.1468 | x1 = 0.2554 | x1 = 0.3491 | x1 = 0.4438 | x1 = 0.5446 | x1 = 0.6382 | x1 = 0.7449 | x1 = 0.8743
308.15 K | 0.796 | 0.835 | 0.893 | 0.948 | 1.022 | 1.113 | 1.206 | 1.322 | 1.467
313.15 K | 0.721 | 0.759 | 0.818 | 0.873 | 0.947 | 1.036 | 1.126 | 1.246 | 1.387
318.15 K | 0.681 | 0.711 | 0.76 | 0.804 | 0.865 | 0.942 | 1.027 | 1.133 | 1.259

CCCC[n+]1ccn(C)c1.O=C([O-])C(F)(F)F + O
Conditions | viscosity [mPa·s]
298.15 K, 101 kPa, x2 = 0.7927 | 9.03

C[C@H](N)C(=O)N[C@@H](CCC(N)=O)C(=O)O + O
Conditions | viscosity [mPa·s]
298.15 K, 101 kPa, x1 = 0.0008999 | 0.919

Cc1ccc(NC(=O)NC(C)CCCC(C)C)cc1NC(=O)NC(C)CCCC(C)C (stereo not drawn) + CCCCC
Conditions | viscosity [mPa·s]
293.15 K, 100 kPa, x1 = 0.0002 | 461

C=C(C)C(=O)OC + CCC(C)O
viscosity [mPa·s], 101.3 kPa
Conditions | 298.15 K | 308.15 K
x1 = 0.0597 | 2.462 | 2.057
x1 = 0.1551 | 1.779 | 1.481
x1 = 0.255 | 1.32 | 1.097
x1 = 0.3562 | 1.022 | 0.848
x1 = 0.4561 | 0.83 | 0.688
x1 = 0.5021 | 0.766 | 0.635
x1 = 0.5571 | 0.704 | 0.584
x1 = 0.6562 | 0.626 | 0.52
x1 = 0.7557 | 0.581 | 0.484
x1 = 0.8552 | 0.564 | 0.472
x1 = 0.9549 | 0.572 | 0.481

C[n+]1ccn(CC(=O)O)c1.[Cl-] + O
298.15 K, 101 kPa
Conditions | viscosity [mPa·s]
x1 = 0.0009 | 0.911
x1 = 0.001 | 0.915
x1 = 0.002 | 0.917

C=C(C)C(=O)OC + CC(C)O
viscosity [mPa·s], 101.3 kPa
Conditions | 298.15 K | 308.15 K
x1 = 0.0556 | 1.716 | 1.339
x1 = 0.1557 | 1.314 | 1.051
x1 = 0.2605 | 1.034 | 0.845
x1 = 0.3541 | 0.862 | 0.717
x1 = 0.4318 | 0.76 | 0.638
x1 = 0.5041 | 0.689 | 0.583
x1 = 0.5537 | 0.651 | 0.553
x1 = 0.6557 | 0.596 | 0.509
x1 = 0.7561 | 0.567 | 0.484
x1 = 0.8542 | 0.559 | 0.477
x1 = 0.9512 | 0.571 | 0.483

CCCC[n+]1ccn(C)c1.O=C([O-])C(F)(F)F + ClC(Cl)Cl
Conditions | viscosity [mPa·s]
298.15 K, 101 kPa, x2 = 0.6467 | 9.74

ClCCCCCCCl + c1ccccc1
viscosity [mPa·s], 101 kPa
Conditions | x1 = 0.09315 | x1 = 0.1846 | x1 = 0.2859 | x1 = 0.3958 | x1 = 0.5003 | x1 = 0.5842 | x1 = 0.6836 | x1 = 0.7842 | x1 = 0.8829
308.15 K | 0.565 | 0.613 | 0.668 | 0.733 | 0.824 | 0.92 | 1.066 | 1.217 | 1.393
313.15 K | 0.546 | 0.591 | 0.645 | 0.704 | 0.789 | 0.888 | 1.014 | 1.164 | 1.324
318.15 K | 0.505 | 0.548 | 0.594 | 0.642 | 0.72 | 0.809 | 0.929 | 1.056 | 1.197

C[N+](C)(C)CCC[N+]1(C)CCCCC1.N#C[N-]C#N.N#C[N-]C#N + CC#N
viscosity [mPa·s], 100 kPa
Conditions | x1 = 0.0999 | x1 = 0.7001 | x1 = 0.7996
298.15 K | – | – | 895.3
318.15 K | 2.675 | 163.5 | –

C=C(C)C(=O)OC + CC(C)CO
viscosity [mPa·s], 101.3 kPa
Conditions | 298.15 K | 308.15 K
x1 = 0.0547 | 2.74 | 2.077
x1 = 0.1398 | 2.067 | 1.621
x1 = 0.2311 | 1.576 | 1.274
x1 = 0.33 | 1.22 | 1.012
x1 = 0.4577 | 0.927 | 0.788
x1 = 0.5037 | 0.852 | 0.73
x1 = 0.5427 | 0.799 | 0.687
x1 = 0.6552 | 0.686 | 0.595
x1 = 0.7288 | 0.638 | 0.553
x1 = 0.8409 | 0.594 | 0.512
x1 = 0.9341 | 0.581 | 0.495

C=C(C)C(=O)OC + CC(C)(C)O
viscosity [mPa·s], 101.3 kPa
Conditions | 298.15 K | 308.15 K
x1 = 0.0571 | 3.463 | 2.088
x1 = 0.1587 | 2.316 | 1.51
x1 = 0.256 | 1.652 | 1.15
x1 = 0.3589 | 1.217 | 0.898
x1 = 0.4561 | 0.956 | 0.738
x1 = 0.4983 | 0.873 | 0.686
x1 = 0.5567 | 0.782 | 0.627
x1 = 0.6571 | 0.672 | 0.555
x1 = 0.7563 | 0.608 | 0.511
x1 = 0.841 | 0.58 | 0.491
x1 = 0.9335 | 0.573 | 0.486

CCCCOP(=O)(O)OCCCC + CC(C)N
297 K, 101 kPa
Conditions | viscosity [mPa·s]
x2 = 0.15 | 80
x2 = 0.3 | 240
x2 = 0.48 | 4070
x2 = 0.5 | 4750
x2 = 0.66 | 260
x2 = 0.85 | 100
